Measured values taken from ChEMBL document CHEMBL1275482, “Point mutation in the group B streptococcal pbp2x gene conferring decreased susceptibility to beta-lactam antibiotics” (2008).
In brackets after ≈: the same amount, converted by molar mass.

Legend:
[1] = system: Streptococcus sp. 'group B'; test: Antimicrobial activity against group B Streptococcus sp. 'group B' serotype II isolate 9051-04 by broth dilution method; type: functional
[2] = system: Streptococcus sp. 'group B'; test: Antimicrobial activity against group B Streptococcus sp. 'group B' serotype IA isolate 6649-05 by broth dilution method; type: functional
[3] = system: Streptococcus sp. 'group B'; test: Antimicrobial activity against group B Streptococcus sp. 'group B' serotype III isolate 8607-03 expressing pbp2x Q557E mutant and harboring empty vector by broth dilution method; type: functional
[4] = system: Streptococcus sp. 'group B'; test: Antimicrobial activity against group B Streptococcus sp. 'group B' serotype IV isolate 3454-03 by broth dilution method; type: functional
[5] = system: Streptococcus sp. 'group B'; test: Antimicrobial activity against group B Streptococcus sp. 'group B' serotype V isolate 4857-03 by broth dilution method; type: functional
[6] = system: Streptococcus sp. 'group B'; test: Antimicrobial activity against group B Streptococcus sp. 'group B' serotype IA isolate 7490-03 by broth dilution method; type: functional
[7] = system: Streptococcus sp. 'group B'; test: Antimicrobial activity against group B Streptococcus sp. 'group B' serotype III isolate 6138-03 expressing pbp2x Q557E mutant and multilocus sequence type ST19 by broth dilution method; type: functional
[8] = system: Streptococcus sp. 'group B'; test: Antimicrobial activity against group B Streptococcus sp. 'group B' serotype V isolate 3386-05 by broth dilution method; type: functional
[9] = system: Streptococcus sp. 'group B'; test: Antimicrobial activity against group B Streptococcus sp. 'group B' isolate 6149-03 by broth dilution method; type: functional
[10] = system: Streptococcus sp. 'group B'; test: Antimicrobial activity against group B Streptococcus sp. 'group B' isolate 7368-04 by broth dilution method; type: functional
[11] = system: Streptococcus sp. 'group B'; test: Antimicrobial activity against group B Streptococcus sp. 'group B' serotype V isolate 9171-03 by broth dilution method; type: functional
[12] = system: Streptococcus sp. 'group B'; test: Antimicrobial activity against group B Streptococcus sp. 'group B' serotype III isolate 8607 with chromosomal pbp2x(Q557E) replaced by wild-type pbp2x through allelic exchange by broth dilution method
[13] = system: Streptococcus sp. 'group B'; test: Antimicrobial activity against group B Streptococcus sp. 'group B' serotype V isolate 5677-04 by broth dilution method; type: functional
[14] = system: Streptococcus sp. 'group B'; test: Antimicrobial activity against group B Streptococcus sp. 'group B' serotype III isolate 3444-99 by broth dilution method; type: functional
[15] = system: Streptococcus sp. 'group B'; test: Antimicrobial activity against group B Streptococcus sp. 'group B' serotype III isolate 8607-03 expressing pbp2x Q557E mutant and harboring plasmid expressing wild-type pbp2x by broth dilution method; type: functional
[16] = system: Streptococcus sp. 'group B'; test: Antimicrobial activity against group B Streptococcus sp. 'group B' serotype IA isolate 9012-04 by broth dilution method; type: functional
[17] = system: Streptococcus sp. 'group B'; test: Antimicrobial activity against group B Streptococcus sp. 'group B' serotype III isolate 7507-03 expressing pbp2x Q557E mutant and multilocus sequence type ST19 by broth dilution method; type: functional
[18] = system: Streptococcus sp. 'group B'; test: Antimicrobial activity against group B Streptococcus sp. 'group B' serotype III isolate 7037-99 by broth dilution method; type: functional
[19] = system: Streptococcus sp. 'group B'; test: Antimicrobial activity against group B Streptococcus sp. 'group B' serotype III isolate 3789-04 expressing pbp2x Q557E mutant and multilocus sequence type ST19 by broth dilution method; type: functional
[20] = system: Streptococcus sp. 'group B'; test: Antimicrobial activity against group B Streptococcus sp. 'group B' serotype III isolate 8607-03 expressing pbp2x Q557E mutant and multilocus sequence type ST19 by broth dilution method; type: functional
[21] = system: Streptococcus sp. 'group B'; test: Antimicrobial activity against group B Streptococcus sp. 'group B' serotype IB isolate 5436-03 by broth dilution method; type: functional
[22] = system: Streptococcus sp. 'group B'; test: Antimicrobial activity against group B Streptococcus sp. 'group B' serotype IA isolate 5662-05 by broth dilution method; type: functional
[23] = system: Streptococcus sp. 'group B'; test: Antimicrobial activity against group B Streptococcus sp. 'group B' isolate 4214-03 by broth dilution method; type: functional
[24] = system: Streptococcus sp. 'group B'; test: Antimicrobial activity against group B Streptococcus sp. 'group B' serotype II isolate 3776-04 by broth dilution method; type: functional
[25] = system: Streptococcus sp. 'group B'; test: Antimicrobial activity against group B Streptococcus sp. 'group B' serotype IA isolate 3047-05 by broth dilution method; type: functional

SMILES | MIC [1] | MIC [3] | MIC [4] | MIC [5] | MIC [6] | MIC [7] | MIC [9] | MIC [10] | MIC [11] | MIC [12] | MIC [13] | MIC [14] | MIC [15] | MIC [16] | MIC [17] | MIC [18] | MIC [19] | MIC [20] | MIC [21] | MIC [22] | further results
CC1(C)S[C@@H]2[C@H](NC(=O)[C@H](N)c3ccccc3)C(=O)N2[C@H]1C(=O)O [AMPICILLIN] | 0.12 µg/mL (≈ 0.343 µM) | 0.06 µg/mL (≈ 0.172 µM) | 0.25 µg/mL (≈ 0.715 µM) | 0.25 µg/mL (≈ 0.715 µM) | 0.12 µg/mL (≈ 0.343 µM) | 0.06 µg/mL (≈ 0.172 µM) | 0.12 µg/mL (≈ 0.343 µM) | 0.12 µg/mL (≈ 0.343 µM) | 0.12 µg/mL (≈ 0.343 µM) | 0.06 µg/mL (≈ 0.172 µM) | 0.25 µg/mL (≈ 0.715 µM) | 0.12 µg/mL (≈ 0.343 µM) | 0.06 µg/mL (≈ 0.172 µM) | 0.06 µg/mL (≈ 0.172 µM) | 0.12 µg/mL (≈ 0.343 µM) | 0.12 µg/mL (≈ 0.343 µM) | 0.12 µg/mL (≈ 0.343 µM) | 0.06 µg/mL (≈ 0.172 µM) | 0.06 µg/mL (≈ 0.172 µM) | 0.12 µg/mL (≈ 0.343 µM) | MIC [2]: 0.25 µg/mL (≈ 0.715 µM); MIC [8]: 0.06 µg/mL (≈ 0.172 µM); MIC [23]: 0.25 µg/mL (≈ 0.715 µM); MIC [24]: 0.25 µg/mL (≈ 0.715 µM); MIC [25]: 0.12 µg/mL (≈ 0.343 µM)
Cc1nnc(SCC2=C(C(=O)O)N3C(=O)[C@@H](NC(=O)Cn4cnnn4)[C@H]3SC2)s1 [CEFAZOLIN] | 0.25 µg/mL (≈ 0.55 µM) | 16 µg/mL (≈ 35.2 µM) | 0.5 µg/mL (≈ 1.1 µM) | 0.5 µg/mL (≈ 1.1 µM) | 0.25 µg/mL (≈ 0.55 µM) | 0.5 µg/mL (≈ 1.1 µM) | 0.25 µg/mL (≈ 0.55 µM) | 0.5 µg/mL (≈ 1.1 µM) | 0.25 µg/mL (≈ 0.55 µM) | 2 µg/mL (≈ 4.4 µM) | 1 µg/mL (≈ 2.2 µM) | 0.25 µg/mL (≈ 0.55 µM) | 2 µg/mL (≈ 4.4 µM) | 0.25 µg/mL (≈ 0.55 µM) | 0.5 µg/mL (≈ 1.1 µM) | 0.25 µg/mL (≈ 0.55 µM) | 1 µg/mL (≈ 2.2 µM) | 0.5 µg/mL (≈ 1.1 µM) | 1 µg/mL (≈ 2.2 µM) | 0.25 µg/mL (≈ 0.55 µM) | MIC [2]: 0.5 µg/mL (≈ 1.1 µM); MIC [8]: 0.12 µg/mL (≈ 0.264 µM); MIC [23]: 0.5 µg/mL (≈ 1.1 µM); MIC [24]: 0.25 µg/mL (≈ 0.55 µM); MIC [25]: 0.25 µg/mL (≈ 0.55 µM)
CO/N=C(\C(=O)N[C@@H]1C(=O)N2C(C(=O)O)=C(COC(C)=O)CS[C@H]12)c1csc(N)n1 [CEFOTAXIME] | 0.06 µg/mL (≈ 0.132 µM) | 0.25 µg/mL (≈ 0.549 µM) | 0.25 µg/mL (≈ 0.549 µM) | 0.06 µg/mL (≈ 0.132 µM) | 0.12 µg/mL (≈ 0.263 µM) | 0.25 µg/mL (≈ 0.549 µM) | 0.06 µg/mL (≈ 0.132 µM) | 0.06 µg/mL (≈ 0.132 µM) | 0.12 µg/mL (≈ 0.263 µM) | 0.03 µg/mL (≈ 0.0659 µM) | 0.12 µg/mL (≈ 0.263 µM) | 0.06 µg/mL (≈ 0.132 µM) | 0.015 µg/mL (≈ 0.0329 µM) | 0.06 µg/mL (≈ 0.132 µM) | 0.12 µg/mL (≈ 0.263 µM) | 0.12 µg/mL (≈ 0.263 µM) | 0.25 µg/mL (≈ 0.549 µM) | 0.25 µg/mL (≈ 0.549 µM) | 0.25 µg/mL (≈ 0.549 µM) | 0.06 µg/mL (≈ 0.132 µM) | MIC [2]: 0.12 µg/mL (≈ 0.263 µM); MIC [8]: 0.06 µg/mL (≈ 0.132 µM); MIC [23]: 0.12 µg/mL (≈ 0.263 µM); MIC [24]: 0.12 µg/mL (≈ 0.263 µM); MIC [25]: 0.06 µg/mL (≈ 0.132 µM)
CO[C@@]1(NC(=O)Cc2cccs2)C(=O)N2C(C(=O)O)=C(COC(N)=O)CS[C@@H]21 [CEFOXITIN] | 8 µg/mL (≈ 18.7 µM) | 16 µg/mL (≈ 37.4 µM) | 8 µg/mL (≈ 18.7 µM) | 4 µg/mL (≈ 9.36 µM) | 2 µg/mL (≈ 4.68 µM) | 16 µg/mL (≈ 37.4 µM) | 8 µg/mL (≈ 18.7 µM) | 4 µg/mL (≈ 9.36 µM) | 4 µg/mL (≈ 9.36 µM) | 2 µg/mL (≈ 4.68 µM) | 16 µg/mL (≈ 37.4 µM) | 8 µg/mL (≈ 18.7 µM) | 2 µg/mL (≈ 4.68 µM) | 16 µg/mL (≈ 37.4 µM) | 16 µg/mL (≈ 37.4 µM) | 8 µg/mL (≈ 18.7 µM) | 16 µg/mL (≈ 37.4 µM) | 16 µg/mL (≈ 37.4 µM) | 16 µg/mL (≈ 37.4 µM) | 8 µg/mL (≈ 18.7 µM) | MIC [2]: 4 µg/mL (≈ 9.36 µM); MIC [8]: 16 µg/mL (≈ 37.4 µM); MIC [23]: 4 µg/mL (≈ 9.36 µM); MIC [24]: 8 µg/mL (≈ 18.7 µM); MIC [25]: 8 µg/mL (≈ 18.7 µM)
CO/N=C(\C(=O)N[C@@H]1C(=O)N2C(C(=O)O)=C(COC(N)=O)CS[C@H]12)c1ccco1 [CEFUROXIME] | 0.06 µg/mL (≈ 0.141 µM) | 0.5 µg/mL (≈ 1.18 µM) | 0.06 µg/mL (≈ 0.141 µM) | 0.06 µg/mL (≈ 0.141 µM) | 0.06 µg/mL (≈ 0.141 µM) | 0.25 µg/mL (≈ 0.589 µM) | 0.06 µg/mL (≈ 0.141 µM) | 0.06 µg/mL (≈ 0.141 µM) | 0.06 µg/mL (≈ 0.141 µM) | 0.06 µg/mL (≈ 0.141 µM) | 0.12 µg/mL (≈ 0.283 µM) | 0.06 µg/mL (≈ 0.141 µM) | 0.06 µg/mL (≈ 0.141 µM) | 0.06 µg/mL (≈ 0.141 µM) | 0.12 µg/mL (≈ 0.283 µM) | 0.06 µg/mL (≈ 0.141 µM) | 0.12 µg/mL (≈ 0.283 µM) | 0.12 µg/mL (≈ 0.283 µM) | 0.25 µg/mL (≈ 0.589 µM) | 0.03 µg/mL (≈ 0.0707 µM) | MIC [23]: 0.12 µg/mL (≈ 0.283 µM); MIC [24]: 0.12 µg/mL (≈ 0.283 µM); MIC [25]: 0.06 µg/mL (≈ 0.141 µM)
CC1(C)S[C@@H]2[C@H](NC(=O)Cc3ccccc3)C(=O)N2[C@H]1C(=O)O [PENICILLIN G] | 0.06 µg/mL (≈ 0.179 µM) | 0.12 µg/mL (≈ 0.359 µM) | 0.12 µg/mL (≈ 0.359 µM) | 0.12 µg/mL (≈ 0.359 µM) | 0.06 µg/mL (≈ 0.179 µM) | 0.12 µg/mL (≈ 0.359 µM) | 0.06 µg/mL (≈ 0.179 µM) | 0.12 µg/mL (≈ 0.359 µM) | 0.06 µg/mL (≈ 0.179 µM) | 0.015 µg/mL (≈ 0.0449 µM) | 0.12 µg/mL (≈ 0.359 µM) | 0.06 µg/mL (≈ 0.179 µM) | 0.015 µg/mL (≈ 0.0449 µM) | 0.06 µg/mL (≈ 0.179 µM) | 0.12 µg/mL (≈ 0.359 µM) | 0.06 µg/mL (≈ 0.179 µM) | 0.12 µg/mL (≈ 0.359 µM) | 0.12 µg/mL (≈ 0.359 µM) | 0.03 µg/mL (≈ 0.0897 µM) | 0.06 µg/mL (≈ 0.179 µM) | MIC [2]: 0.12 µg/mL (≈ 0.359 µM); MIC [8]: 0.03 µg/mL (≈ 0.0897 µM); MIC [23]: 0.12 µg/mL (≈ 0.359 µM); MIC [24]: 0.12 µg/mL (≈ 0.359 µM); MIC [25]: 0.06 µg/mL (≈ 0.179 µM)
